Data from patent US20090285773A1, “Hepatitis C Virus Inhibitors” (Bristol-Myers Squibb Company, priority 2008, published 2009).
Read-outs that look alike come from different tables or passages of the source.

Key:
[1] = molecular target: T1, NS3/4A protease complex (UniProt P27958); experiment: HCV NS3/4A protease complex enzyme assay (strain not stated); assay type: biochemical; conditions: Table 2; strain and unit inferred
T1 construct: fused on or other part: three-lysine solubilising tail at the C-terminus of NS4A; probably a His tag from pET21b (Ni-NTA purification)
T1 sequence (P27958 1027-1657, one chain of several): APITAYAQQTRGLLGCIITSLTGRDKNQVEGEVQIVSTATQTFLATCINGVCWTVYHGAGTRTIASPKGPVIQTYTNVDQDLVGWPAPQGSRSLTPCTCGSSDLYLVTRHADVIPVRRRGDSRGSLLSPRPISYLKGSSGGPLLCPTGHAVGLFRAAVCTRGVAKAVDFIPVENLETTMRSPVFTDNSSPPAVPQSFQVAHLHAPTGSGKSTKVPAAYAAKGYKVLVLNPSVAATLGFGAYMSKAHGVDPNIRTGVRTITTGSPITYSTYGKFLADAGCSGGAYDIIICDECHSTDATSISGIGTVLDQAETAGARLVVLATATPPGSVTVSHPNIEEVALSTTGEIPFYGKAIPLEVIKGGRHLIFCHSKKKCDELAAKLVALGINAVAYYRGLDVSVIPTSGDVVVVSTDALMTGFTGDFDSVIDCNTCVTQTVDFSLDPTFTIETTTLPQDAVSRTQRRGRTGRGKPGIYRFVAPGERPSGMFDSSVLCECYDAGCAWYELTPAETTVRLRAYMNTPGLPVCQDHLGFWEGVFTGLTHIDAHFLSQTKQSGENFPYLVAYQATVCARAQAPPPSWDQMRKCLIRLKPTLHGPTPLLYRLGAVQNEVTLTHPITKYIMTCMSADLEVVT
From the text: The purpose of this in vitro assay was to measure the inhibition of HCV NS3 protease complexes, derived from the BMS strain, H77 strain or J4L6S strain, as described above, by compounds of the present disclosure. This assay provides an indication of how effective compounds of the present disclosure would be in inhibiting HCV NS3 proteolytic activity.
In order to monitor HCV NS3/4A protease activity, an NS3/4A peptide substrate was used. The substrate was RET S1 (Resonance Energy Transfer Depsipeptide Substrate; AnaSpec, Inc. cat #22991)(FRET peptide), described by Taliani et al. in Anal. Biochem. 240(2):60-67 (1996). The sequence of this peptide is loosely based on the NS4A/NS4B natural cleavage site for the HCV NS3 protease except there is an ester linkage rather than an amide bond at the cleavage site. The peptide also contains a fluorescence donor, EDANS, near one end of the peptide and an acceptor, DABCYL, near the other end. The fluorescence of the peptide is quenched by […] resonance energy transfer (RET) between the donor and the acceptor, but as the NS3 protease cleaves the peptide the products are released from RET quenching and the fluorescence of the donor becomes apparent.
The peptide substrate was incubated with one of the three recombinant NS3/4A protease complexes, in the absence or presence of a compound of the present disclosure. The inhibitory effects of a compound were determined by monitoring the formation of fluorescent reaction product in real time using a Cytofluor Series 4000.
Assay buffer: 50 mM HEPES, pH 7.5; 0.15 M NaCl; 0.1% Triton; 15% Glycerol; 10 mM βME. Substrate: 2 μM final concentration (from a 2 mM stock solution in DMSO stored at −20° C.). HCV NS3/4A protease type 1a (1b), 2-3 nM final concentration (from a 5 μM stock solution in 25 mM HEPES, pH 7.5, 20% glycerol, 300 mM NaCl, 0.2% Triton-X100, 10 mM βME). For compounds with potencies approaching the assay limit, the assay was made more sensitive by adding 50 μg/ml Bovine Serum Albumin (Sigma) to the assay buffer and reducing the end protease concentration to 300 pM.
The assay was performed in a 96-well polystyrene black plate from Falcon. Each well contained 25 μl NS3/4A protease complex in assay buffer, 50 μl of a compound of the present disclosure in 10% DMSO/assay buffer and 25 μl substrate in assay buffer. A control (no compound) was also prepared on the same assay plate. The enzyme complex was mixed with compound or control solution for 1 min before initiating the enzymatic reaction by the addition of substrate. The assay plate was read immediately using the Cytofluor Series 4000 (Perspective Biosystems). The instrument was set to read an emission of […] at 25° C. Reactions were generally followed for approximately 15 min.
The percent inhibition was calculated with the following equation: […]
where δF is the change in fluorescence over the linear range of the curve. A non-linear curve fit was applied to the inhibition-concentration data, and the 50% effective concentration (IC50) was calculated by the use of Excel XLfit software using the equation, y=A+((B−A)/(1+((C/x)̂D))).

[2] = tested on: HCV replicon (strain 1b) in HUH-7 cells; experiment: HCV replicon FRET assay; assay type: cell-based; conditions: Hepatitis C virus
From the text: An HCV replicon whole cell system was established as described by Lohmann V, Korner F, Koch J, Herian U, Theilmann L, Bartenschlager R., Science 285(5424): 110-3 (1999). This system enabled us to evaluate the effects of our HCV Protease compounds on HCV RNA replication. Briefly, using the HCV strain 1b sequence described in the Lohmann paper (Assession number:AJ238799), an HCV cDNA was synthesized by Operon Technologies, Inc. (Alameda, Calif.), and the full-length replicon was then assembled in plasmid pGem9zf(+) (Promega, Madison, Wis.) using standard molecular biology techniques. The replicon consists of (i) the HCV 5′ UTR fused to the first 12 amino acids of the capsid protein, (ii) the neomycin phosphotransferase gene (neo), (iii) the IRES from encephalomyocarditis virus (EMCV), and (iv) HCV NS3 to NS5B genes and the HCV 3′ UTR. Plasmid DNAs were linearized with ScaI and RNA transcripts were synthesized in vitro using the T7 MegaScript transcription kit (Ambion, Austin, Tex.) according to manufacturer's directions. In vitro transcripts of the cDNA were transfected into the human hepatoma cell line, HUH-7. […] Resulting cell lines were characterized for positive and negative strand RNA production and protein production over time.
The HCV replicon FRET assay was developed to monitor the inhibitory effects of compounds described in the disclosure on HCV viral replication. HUH-7 cells, constitutively expressing the HCV replicon, were grown in Dulbecco's Modified Eagle Media (DMEM) (Gibco-BRL) containing 10% Fetal calf serum (FCS) (Sigma) and 1 mg/ml G418 (Gibco-BRL). Cells were seeded the night before (1.5×10^4 cells/well) in 96-well tissue-culture sterile plates. Compound and no compound controls were prepared in DMEM containing 4% FCS, 1:100 Penicillin/Streptomysin (Gibco-BRL), 1:100 L-glutamine and 5% DMSO in the dilution plate (0.5% DMSO final concentration in the assay). Compound/DMSO mixes were added to the cells and incubated for 4 days at 37° C. After 4 days, cells were first assessed for cytotoxicity using alamar Blue (Trek Diagnotstic Systems) for a CC50 reading. The toxicity of compound (CC50) was determined by adding 1/10th volume of alamar Blue to the media incubating the cells. After 4 h, the fluorescence signal from each well was read, with an excitation wavelength at 530 nm and an emission wavelength of 580 nm, using the Cytofluor Series 4000 (Perspective Biosystems). Plates were then rinsed thoroughly with Phosphate-Buffered Saline (PBS) (3 times 150 μl).

COc1ccc2c(O[C@@H]3C[C@H]4C(=O)N[C@]5(C(=O)NS(=O)(=O)C6CC6)C[C@H]5/C=C\CCCCC[C@H](Nc5ccc(OC)nc5)C(=O)N4C3)nccc2c1 (single isomer, unassigned) [Compound 1] gave an IC50 [1] of 7 nM, an EC50 ([2]; 96 h, HUH-7 replicon cells, 4 days, read-out: EC50 value in the replicon FRET assay) of 21 nM and an EC50 ([2]; Huh-7, Table 2, replicon assay variant and unit inferred, read-out: EC50) of 20.5 nM.
